PubChem BioAssay (NCI)
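Where inhibition never reached the appropriate level, the endpoint shown equals the highest concentration tested. Otherwise, values were interpolated linearly from a five-concentration, 48-hour dose response in 96-well plates. Here, GI50 denotes the concentration required for 50% inhibition of growth. TGI: concentration producing complete growth inhibition.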

Tests used:
Assay in all cases: inhibition of tumour cell growth, NCI panel, 48 h
UACC-62 melanoma = tested on: UACC-62 melanoma
SF-295 CNS = tested on: SF-295 CNS
LOX IMVI melanoma = tested on: LOX IMVI melanoma
CCRF-CEM leukemia = tested on: CCRF-CEM leukemia
U251 CNS = tested on: U251 CNS
HCC-2998 colon = tested on: HCC-2998 colon
HS 578T breast = tested on: HS 578T breast

Compound | GI50 (UACC-62 melanoma) [µM] | TGI (UACC-62 melanoma) [µM] | GI50 (SF-295 CNS) [µM] | TGI (SF-295 CNS) [µM] | GI50 (LOX IMVI melanoma) [µM] | TGI (LOX IMVI melanoma) [µM] | GI50 (CCRF-CEM leukemia) [µM] | TGI (CCRF-CEM leukemia) [µM] | GI50 (U251 CNS) [µM] | TGI (U251 CNS) [µM] | GI50 (HCC-2998 colon) [µM] | TGI (HCC-2998 colon) [µM] | GI50 (HS 578T breast) [µM] | TGI (HS 578T breast) [µM]
O=c1c2ccccc2c(=O)c2c1[nH]c1c(-c3ccccc3)c(-c3ccccc3)c(=O)c12 | 1.72 | 3.38 | 2.34 | 6.24 | 2.55 | 6.2 | 1.46 | 11 | 2.27 | 4.9 | 2.09 | 5.05 | 5.67 | 31.1
Cc1ncc(CCCN(C)C)cc1Nc1ncc2c(n1)-c1ccc(C(F)(F)F)cc1NC(=S)C2 | 0.0313 | 17.9 | < 0.01 | 2.7 | 0.0276 | 15.1 | < 0.0134 | 10.4 | < 0.0194 | 14 | 0.0135 | 10.3 | 0.0276 | 1.14
Cc1ccc(-c2nc3ccc(Cl)cc3c(=O)n2N2C(=O)CSC2c2ccccc2Cl)cc1 (configuration not stated) | 25.8 | > 100 | 4.73 | > 100 | 70.1 | > 100 | > 100 | > 100 | 5.05 | > 100 | > 100 | > 100 | 2.62 | 17.2
COc1cc(/C=C/c2ccc(OC)c(OC)c2)cc(OC)c1 | – | 63.5 | – | 68.9 | – | 41.8 | – | > 100 | – | 69 | – | – | – | 89.8
CC(C)C[C@H](NC(=O)/C=C/Cn1ccc2ccccc2c1=O)B(O)O | 3.35 | 14.9 | 2.75 | 15.1 | 2.88 | 10.7 | – | – | – | – | 4.38 | 14.2 | 5.03 | > 100
Clc1ccc(C=Nc2ccc3c(c2)Cc2ccccc2-3)c(Cl)c1 | – | > 100 | – | > 100 | – | > 100 | – | > 100 | – | > 100 | – | – | – | > 100
COc1cc(/C=C/c2cc(/C=C/c3ccc(O)c(OC)c3)n(C(=O)Nc3ccc(C)cc3C)n2)ccc1O | 0.412 | 1.65 | – | – | – | – | 0.232 | > 100 | 0.401 | 1.47 | 0.738 | 4.26 | 0.295 | > 100
CC1=C[C@H]2c3c(c(O)c(O)c4oc(-c5ccccc5)cc(=O)c34)[C@H](c3cc(O)c(O)c4oc(-c5ccccc5)cc(=O)c34)[C@H]2C(C)(C)C1 | 0.516 | 1.97 | 0.312 | 1.76 | 0.395 | 1.33 | 0.67 | > 75 | 0.415 | 18.7 | 1.56 | 4.65 | 0.412 | 10.2
COc1cc2[nH]c(C(=O)c3cc(OC)c(OC)c(OC)c3)c(N)c2cc1C#CC1CC1 | 20.1 | > 100 | 1.66 | > 100 | 4.33 | > 100 | 3.38 | > 100 | 4.74 | > 100 | 20.1 | > 100 | 3.75 | > 100
